Patent US20230357179A1, “RAF KINASE INHIBITORS AND METHODS OF USE THEREOF” (Deciphera Pharmaceuticals, LLC, priority 2021, published 2023)

Key:
Miapaca-2 cells = assay: MiaPaca-2 combination cell proliferation assay (1) with cobimetinib, 96-well; format: cell-based; conditions: inhibition of cell proliferation, read-out: MiaPaca-2 Combo (1) IC50
Procedure: MiaPaca-2 Combination Cell proliferation Assay (1)
Miapaca-2 cells (catalog #CRL-1420) are obtained from the American Type Culture Collect (ATCC, Manassas, VA). Briefly, cells were grown in DMEM supplemented with 10% characterized fetal bovine serum (Invitrogen, Carlsbad, CA), 2.5% New Zealand sourced horse serum and 1% Penicillin/Streptomycin/L-Glutamine at 37° C., 5% CO2, and 95% humidity. Cells are expanded until reaching 70-95% confluency at which point they are subcultured or harvested for assay use. A serial dilution of test compound was dispensed into multiple 96-well black clear bottom plates in triplicate. A serial dilution of complete growth medium containing cobimetinib was prepared at twice the final concentration and 100 μL was dispensed across the test compound titration in triplicate. Three thousand cells are added per well in 100 μL complete growth medium in each 96-well plate. Plates are incubated for 67-72 hours at 37° C., 5% CO2, and 95% humidity. At the end of the incubation, 40 μL of a 440 μM solution of resazurin (Sigma, St. Louis, MO) in PBS is added to each well of the plate and plates are incubated for an additional 5-7 hours at 37° C., 5% CO2, and 95% humidity. Plates are read on a Synergy2 or equivalent reader (Biotek, Winooski VT) using an excitation of 540 nm and an emission of 600 nm. Drug synergy was assessed via BLISS analysis in the Combenefit software (Cancer Research UK Cambridge Institute, Cambridge, UK). Data is analyzed using Prism software (GraphPad, San Diego, CA) to calculate IC50 values. Shifts in test compound IC50 values are reported from top-constrained combination therapy curves.

WM3629 cells = assay: WM3629 cell proliferation assay (2), resazurin, 384-well; format: cell-based; conditions: inhibition of cell proliferation, 67-72 hours
Procedure: WM3629 Cell Proliferation Assay (2)
WM3629 cells (#WM3629-01-0001) are obtained from Rockland Immunochemicals Inc (Gilbertsville, PA). Briefly, cells were grown in MCDB 153 medium (Sigma, #M7403, St. Louis, MO) supplemented with 20% Leibovitz's L-15 (ThermoFisher #11415-064, Waltham, MA), 2% heat inactivated fetal bovine serum (ThermoFisher, #A3840001, Waltham, MA), 5 μg/mL Insulin (Bovine Pancreas) (Sigma, #I0516, St. Louis, MO), 1.68 mM Calcium Chloride (Sigma, #C-34006, St. Louis, MO) and 1% Penicillin/Streptomycin/L-Glutamine (ThermoFisher #10378016, Waltham, MA) at 37° C., 5% CO2, and 95% humidity. Cells are expanded until reaching 70-95% confluency at which point they are sub-cultured or harvested for assay use. Using the Beckman Coulter Echo 650, a serial dilution of test compound is dispensed into a 384-well black clear bottom plate in triplicate. One thousand one hundred twenty-five cells are added per well in 50 μL complete growth medium in the 384-well plate. Plates are incubated for 67-72 hours at 37° C., 5% CO2, and 95% humidity. […] Plates are read on a Synergy2 or equivalent reader (Biotek, Winooski VT) using an excitation of 540 nm and an emission of 600 nm. Data is analyzed using Prism software (GraphPad, San Diego, CA) to calculate IC50 values.

IC50 (Miapaca-2 cells) [nM]	SMILES	IC50 (WM3629 cells) [nM]
100 to 500	Cc1cc(F)c(NC(=O)NCCC2(C)CC2)cc1-c1cc(OCCO)nc(-c2ccnc3[nH]ncc23)c1 [Example 87]	–
–	CNC(=O)c1cc(-c2cncc(-c3cc(NC(=O)N4CC[C@H](C(F)(F)F)C4)ccc3C)c2)ccn1 [Example 228]	1000 to 10000
–	CNC(=O)c1cc(-c2cc(-c3cc(NC(=O)N4CC[C@H](C(F)(F)F)C4)ccc3C)ccn2)ccn1 [Example 215]	500 to 1000
